Common to all, as to assay: relative viability (nuclei count vs DMSO), 5 days (fraction); higher = more cells survive
Compound in the assay “Shikonin + Palbociclib”: CC(C)=CC[C@@H](O)C1=CC(=O)c2c(O)ccc(O)c2C1=O [Shikonin] + CC(=O)c1c(C)c2cnc(Nc3ccc(N4CCNCC4)cn3)nc2n(C2CCCC2)c1=O [Palbociclib] (partner 0.5 µM)
The method, boiled down:
(§1)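 Relative viability was taken as the ratio of nuclei in treated wells to nuclei in vehicle wells. Lung cancer cell lines in 1536-well plates received compounds by pin tool one day after seeding, either one drug alone or a fixed anchor-drug dose plus five library-drug doses (not always all listed) in √10 steps. Nuclei were counted on 4× images after 5 days of treatment, and values are medians of duplicate plates.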

Compound in assay [1]: CC(C)N(CCCNC(=O)Nc1ccc(C(C)(C)C)cc1)C[C@H]1O[C@@H](n2ccc3c(N)ncnc32)[C@H](O)[C@@H]1O + CC(=O)Nc1cccc(-n2c(=O)n(C3CC3)c(=O)c3c(Nc4ccc(I)cc4F)n(C)c(=O)c(C)c32)c1 [Trametinib] (partner 0.02 µM)
The method, boiled down: as §1

Compound in assay [2]: CC(C)N(CCCNC(=O)Nc1ccc(C(C)(C)C)cc1)C[C@H]1O[C@@H](n2ccc3c(N)ncnc32)[C@H](O)[C@@H]1O + CC(=O)c1c(C)c2cnc(Nc3ccc(N4CCNCC4)cn3)nc2n(C2CCCC2)c1=O [Palbociclib] (partner 0.5 µM)
The method, boiled down:
as §1

Compound in assay [3]: CC(C)N(CCCNC(=O)Nc1ccc(C(C)(C)C)cc1)C[C@H]1O[C@@H](n2ccc3c(N)ncnc32)[C@H](O)[C@@H]1O + CS(=O)(=O)N1CCN(Cc2cc3nc(-c4cccc5[nH]ncc45)nc(N4CCOCC4)c3s2)CC1 [Pictilisib] (partner 1 µM)
The method, boiled down: as §1

As to RERF-LC-KJ, the relative viability is 1.09 in the assay with Shikonin + Palbociclib (first compound 0.01 µM); 1.13 with Shikonin + Palbociclib (first compound 0.1 µM); 1.1 with Shikonin + Palbociclib (first compound 0.3162 µM); 1.08 with Shikonin + Palbociclib (first compound 1 µM); 0.902 in assay [1] (first compound 0.08 µM); 0.938 in assay [1] (first compound 0.253 µM). In addition, the relative viability in assay [1] (first compound 0.8 µM) is 0.815; in assay [1] (first compound 2.53 µM), 0.911; in assay [1] (first compound 8 µM), 0.783; in assay [2] (first compound 0.08 µM), 1.01; in assay [2] (first compound 0.253 µM), 1.07; in assay [2] (first compound 0.8 µM), 1.18. The relative viability turned out to be 1.17 in assay [2] (first compound 2.53 µM); 1.07 in assay [2] (first compound 8 µM); 0.597 in assay [3] (first compound 0.08 µM); 0.511 in assay [3] (first compound 0.253 µM); 0.525 in assay [3] (first compound 0.8 µM); 0.493 in assay [3] (first compound 2.53 µM). Moreover, the relative viability in assay [3] (first compound 8 µM) came out at 0.501.

Regarding SK-LU-1, the relative viability was found to be 0.379 in the assay with Shikonin + Palbociclib (first compound 0.01 µM); 0.404 with Shikonin + Palbociclib (first compound 0.1 µM); 0.437 with Shikonin + Palbociclib (first compound 0.3162 µM); 0.373 in the assay with Shikonin + Palbociclib (first compound 1 µM); 0.567 in assay [1] (first compound 0.08 µM); 0.469 in assay [1] (first compound 0.253 µM). Moreover, the relative viability in assay [1] (first compound 0.8 µM) was determined as 0.513; in assay [1] (first compound 2.53 µM), 0.501; in assay [1] (first compound 8 µM), 0.428; in assay [2] (first compound 0.08 µM), 0.431; in assay [2] (first compound 0.253 µM), 0.42; in assay [2] (first compound 0.8 µM), 0.332. Besides, the relative viability in assay [2] (first compound 2.53 µM) came to 0.389; in assay [2] (first compound 8 µM), 0.36; in assay [3] (first compound 0.08 µM), 0.593; in assay [3] (first compound 0.253 µM), 0.506; in assay [3] (first compound 0.8 µM), 0.621; in assay [3] (first compound 2.53 µM), 0.662. Moreover, the relative viability in assay [3] (first compound 8 µM) was 0.538.

In the case of SK-MES-1, the relative viability in the assay with Shikonin + Palbociclib (first compound 0.01 µM) was determined as 0.317; with Shikonin + Palbociclib (first compound 0.1 µM), 0.3; in the assay with Shikonin + Palbociclib (first compound 0.3162 µM), 0.295; with Shikonin + Palbociclib (first compound 1 µM), 0.288; in assay [1] (first compound 0.08 µM), 0.537; in assay [1] (first compound 0.253 µM), 0.63. Besides, the relative viability in assay [1] (first compound 0.8 µM) was found to be 0.589; in assay [1] (first compound 2.53 µM), 0.553; in assay [1] (first compound 8 µM), 0.537; in assay [2] (first compound 0.08 µM), 0.317; in assay [2] (first compound 0.253 µM), 0.357; in assay [2] (first compound 0.8 µM), 0.309. Besides, the relative viability in assay [2] (first compound 2.53 µM) was found to be 0.375; in assay [2] (first compound 8 µM) it was 0.325; in assay [3] (first compound 0.08 µM), 0.359; in assay [3] (first compound 0.253 µM) it was 0.363; in assay [3] (first compound 0.8 µM), 0.304; in assay [3] (first compound 2.53 µM), 0.33. The relative viability in assay [3] (first compound 8 µM) amounted to 0.342.

In the case of SW 1573, the relative viability in the assay with Shikonin + Palbociclib (first compound 0.01 µM) worked out at 0.513; in the assay with Shikonin + Palbociclib (first compound 0.1 µM), 0.344; in the assay with Shikonin + Palbociclib (first compound 0.3162 µM), 0.323; in the assay with Shikonin + Palbociclib (first compound 1 µM) it was 0.093; in assay [1] (first compound 0.08 µM), 0.591; in assay [1] (first compound 0.253 µM), 0.565. Besides, the relative viability in assay [1] (first compound 0.8 µM) is 0.588; in assay [1] (first compound 2.53 µM) it was 0.67; in assay [1] (first compound 8 µM), 0.559; in assay [2] (first compound 0.08 µM) it was 0.377; in assay [2] (first compound 0.253 µM), 0.431; in assay [2] (first compound 0.8 µM), 0.419. In addition, the relative viability in assay [2] (first compound 2.53 µM) turned out to be 0.401; in assay [2] (first compound 8 µM), 0.336; in assay [3] (first compound 0.08 µM), 0.656; in assay [3] (first compound 0.253 µM), 0.438; in assay [3] (first compound 0.8 µM), 0.546; in assay [3] (first compound 2.53 µM), 0.55. In assay [3] (first compound 8 µM), the relative viability turned out to be 0.585.

For the origin of these results see the supplement of paper PMC10307832.
